What was measured:
Assay in all cases: drug sensitivity score (DSS) (DSS (dimensionless)); higher = more sensitive (stronger drug response)
FIMM-PDC7 = patient-derived ovarian cancer cells; settings: genetic perturbation: none (patient-derived cell culture)
Outline: (§1)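 Ovarian cancer cell lines with shRNA induced by 100 ng/ml doxycycline for at least three days, along with patient-derived cultures, were seeded at 1 000 – 1 500 cells per well onto drugs pre-plated in 384-well plates at five concentrations over a 10,000-fold range and incubated for three days at 37 °C and 5.0 % CO2. CellTiter-Glo luminescence measured on a PHERAstar FS served as the viability readout, and each drug's dose-response curve was summarised as a drug sensitivity score following an earlier published method.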

FIMM-PDC1 = patient-derived ovarian cancer cells; settings: genetic perturbation: none (patient-derived cell culture)
Outline: as §1

JHOS2 = tested on: JHOS2
Outline: as §1

FIMM-PDC3 = patient-derived ovarian cancer cells; settings: genetic perturbation: none (patient-derived cell culture)
Outline: as §1

FIMM-PDC6 = patient-derived ovarian cancer cells; settings: genetic perturbation: none (patient-derived cell culture)
Outline: as §1

FIMM-PDC5 = patient-derived ovarian cancer cells; settings: genetic perturbation: none (patient-derived cell culture)
Outline: as §1

FIMM-PDC4 = patient-derived ovarian cancer cells; settings: genetic perturbation: none (patient-derived cell culture)
Outline: as §1

OVSAHO = tested on: OVSAHO
Outline: as §1

Kuramochi = tested on: Kuramochi
Outline: as §1

[1] = genetic perturbation: DOX-induced PTK7 shRNA knockdown
[2] = genetic perturbation: DOX-induced control shRNA

SMILES | drug sensitivity score (FIMM-PDC7) | drug sensitivity score (FIMM-PDC1) | drug sensitivity score (JHOS2; [1]) | drug sensitivity score (JHOS2; [2]) | drug sensitivity score (FIMM-PDC3) | drug sensitivity score (FIMM-PDC6) | drug sensitivity score (FIMM-PDC5) | drug sensitivity score (FIMM-PDC4) | drug sensitivity score (OVSAHO; [1]) | drug sensitivity score (OVSAHO; [2]) | drug sensitivity score (Kuramochi; [1]) | drug sensitivity score (Kuramochi; [2])
CS(=O)(=O)N1CCN(Cc2cc3nc(-c4cccc5[nH]ncc45)nc(N4CCOCC4)c3s2)CC1 [Pictilisib] | 12.1 | 8.15 | 5.9 | 9 | 8.3 | 11.5 | 16.5 | 15.1 | 11.7 | 14.1 | 14 | 7.2
CO[C@H](C(=O)[C@@H](O)[C@@H](C)O)[C@@H]1Cc2cc3cc(O[C@H]4C[C@@H](O[C@@H]5C[C@@H](O)[C@H](O)[C@@H](C)O5)[C@H](O)[C@@H](C)O4)c(C)c(O)c3c(O)c2C(=O)[C@H]1O[C@H]1C[C@@H](O[C@@H]2C[C@@H](O)[C@@H](O[C@@H]3C[C@](C)(O)[C@H](O)[C@@H](C)O3)[C@@H](C)O2)[C@H](O)[C@@H](C)O1 [Plicamycin] | < 0 | 15.6 | 3.7 | 20.1 | 4.3 | < 0 | 15.3 | 12.6 | 3.5 | 14.6 | 3.45 | 12.6
C=CC(=O)N1CCC(Oc2cc3c(Nc4ccc(Cl)c(Cl)c4F)ncnc3cc2OC)CC1 [Poziotinib] | 16.1 | 3.5 | < 0 | < 0 | 16.4 | 21.2 | 27.2 | 22.9 | 2.6 | 0.3 | 0.95 | 1.4
CCCCc1nc2cc(/C=C/C(=O)NO)ccc2n1CCN(CC)CC [Pracinostat] | 11.1 | 10.8 | 13.4 | 11.9 | 13.2 | 13.7 | 14.8 | 7.3 | 14.2 | 11.2 | 18 | 7.9
COc1cccc(OCCCN)c1-c1cc(Nc2cnc(C#N)cn2)n[nH]1 [Prexasertib] | 14.3 | 22.6 | 23.3 | 7.3 | 27.1 | 15.4 | 24.3 | 19.2 | 17.4 | 11.1 | 22.4 | 8.8
Cn1cc(CNCC2CCN(c3ncc(C(=O)NO)cn3)CC2)c2ccccc21 [Quisinostat] | 8.6 | 11 | 10.9 | 12.5 | 16.5 | 11.8 | 14.6 | 5.1 | 13.6 | 12 | 17.4 | 6.5
Cc1nc(=O)c2cc(CN(C)c3ccc(C(=O)N[C@@H](CCC(=O)O)C(=O)O)s3)ccc2[nH]1 [Raltitrexed] | 3 | 2.7 | 0.1 | < 0 | < 0 | 1.2 | < 0 | < 0 | < 0 | 5.1 | 0.45 | 9.4
Cn1nccc1Nc1nccc(-c2ccn([C@H](CO)c3ccc(Cl)c(F)c3)c(=O)c2)n1 [Ravoxertinib] | 2.6 | 1.2 | 1.5 | 3.6 | 2.2 | 6.6 | 9.2 | 7.9 | < 0 | 2.4 | 3.45 | < 0
CN(C)Cc1ccc(S(=O)(=O)n2ccc(/C=C/C(=O)NO)c2)cc1 [Resminostat] | 7.2 | 6.7 | 7.8 | 7.1 | 8.7 | 8.8 | 10 | 4.2 | 9.3 | 6.9 | 9.8 | 4.8
CO[C@H]1C[C@@H]2CC[C@@H](C)[C@@](O)(O2)C(=O)C(=O)N2CCCC[C@H]2C(=O)O[C@H]([C@H](C)C[C@@H]2CC[C@@H](OP(C)(C)=O)[C@H](OC)C2)CC(=O)[C@H](C)/C=C(\C)[C@@H](O)[C@@H](OC)C(=O)[C@H](C)C[C@H](C)/C=C/C=C/C=C/1C [Ridaforolimus] | 11.4 | 1.65 | < 0 | 4.1 | 4.5 | 3.2 | 9.5 | 5 | 0.4 | 5.3 | 2.5 | 0.7
COc1cc(OC)c(/C=C/S(=O)(=O)Cc2ccc(OC)c(NCC(=O)O)c2)c(OC)c1 [Rigosertib] | 10.6 | 13.2 | 18.3 | 13 | 19 | 15.1 | 20 | 23.6 | 19.1 | 9.2 | 17.9 | 6.4
C=CC(=O)Nc1cccc(Nc2nc(Nc3ccc(N4CCN(C(C)=O)CC4)cc3OC)ncc2C(F)(F)F)c1 [Rociletinib] | 10.7 | 5.2 | 3.6 | 2.1 | 7.6 | 10.3 | 10.3 | 10 | 9.1 | 5.1 | 4.75 | 4.6
C/C=C1\NC(=O)[C@H]2CSSCC/C=C/[C@H](CC(=O)N[C@H](C(C)C)C(=O)N2)OC(=O)[C@H](C(C)C)NC1=O [Romidepsin] | 27.2 | 26.2 | 24.3 | 24.1 | 29.6 | 31.1 | 26.9 | 25.6 | 28.1 | 25.4 | 30.7 | 21.6
CN(C)C[C@@H]1CCn2cc(c3ccccc32)C2=C(C(=O)NC2=O)c2cn(c3ccccc23)CCO1 [Ruboxistaurin] | 8.1 | 6.85 | 6.2 | 6.5 | 8.5 | 6.8 | 11.1 | 7.8 | 9.8 | 6 | 7.25 | 7
CN1CCC(CNc2ccc3ncc(-c4cccc(OC(F)(F)F)c4)n3n2)CC1 [SGI-1776] | 9.1 | 5.6 | 6.2 | 5.9 | 6 | 6.8 | 6.9 | 6.8 | 7.9 | 7.2 | 5.3 | 5.7
